Reference: PubChem BioAssay (NCI)
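Assay format: 96-well plates, 48-hour exposure. Abbreviation: GI50, concentration required for 50% inhibition of growth. TGI denotes the concentration required for complete inhibition of growth.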

Assays:
Assay in all cases: inhibition of tumour cell growth, NCI panel, 48 h
786-0 renal = test system: 786-0 renal
A549 NSCLC = test system: A549 NSCLC
ACHN renal = test system: ACHN renal
BT-549 breast = test system: BT-549 breast
CAKI-1 renal = test system: CAKI-1 renal
CCRF-CEM leukemia = test system: CCRF-CEM leukemia
COLO 205 colon = test system: COLO 205 colon
DU-145 prostate = test system: DU-145 prostate
EKVX NSCLC = test system: EKVX NSCLC
HCC-2998 colon = test system: HCC-2998 colon
HCT-116 colon = test system: HCT-116 colon
HCT-15 colon = test system: HCT-15 colon
HL-60(TB) leukemia = test system: HL-60(TB) leukemia
HOP-62 NSCLC = test system: HOP-62 NSCLC
HOP-92 NSCLC = test system: HOP-92 NSCLC
HS 578T breast = test system: HS 578T breast
HT29 colon = test system: HT29 colon
IGROV1 ovarian = test system: IGROV1 ovarian
K-562 leukemia = test system: K-562 leukemia
KM12 colon = test system: KM12 colon
M14 melanoma = test system: M14 melanoma
MALME-3M melanoma = test system: MALME-3M melanoma
MCF7 breast = test system: MCF7 breast
MDA-MB-231 breast = test system: MDA-MB-231 breast
MDA-MB-435 = test system: MDA-MB-435
MOLT-4 leukemia = test system: MOLT-4 leukemia
NCI-H226 lung = test system: NCI-H226 lung
NCI-H23 lung = test system: NCI-H23 lung
NCI-H460 lung = test system: NCI-H460 lung
NCI-H522 lung = test system: NCI-H522 lung
NCI/ADR-RES ovarian = test system: NCI/ADR-RES ovarian
OVCAR-3 ovarian = test system: OVCAR-3 ovarian
OVCAR-4 ovarian = test system: OVCAR-4 ovarian
OVCAR-5 ovarian = test system: OVCAR-5 ovarian
OVCAR-8 ovarian = test system: OVCAR-8 ovarian
PC-3 prostate = test system: PC-3 prostate
RPMI-8226 leukemia = test system: RPMI-8226 leukemia
RXF 393 renal = test system: RXF 393 renal
SF-268 CNS = test system: SF-268 CNS
SF-295 CNS = test system: SF-295 CNS
SF-539 CNS = test system: SF-539 CNS
SK-MEL-2 melanoma = test system: SK-MEL-2 melanoma
SK-MEL-28 melanoma = test system: SK-MEL-28 melanoma
SK-MEL-5 melanoma = test system: SK-MEL-5 melanoma
SK-OV-3 ovarian = test system: SK-OV-3 ovarian
SN12C renal = test system: SN12C renal
SNB-19 CNS = test system: SNB-19 CNS
SR leukemia = test system: SR leukemia
SW-620 colon = test system: SW-620 colon
T-47D breast = test system: T-47D breast
TK-10 renal = test system: TK-10 renal
U251 CNS = test system: U251 CNS
UACC-257 melanoma = test system: UACC-257 melanoma
UACC-62 melanoma = test system: UACC-62 melanoma
UO-31 renal = test system: UO-31 renal

O=C1CC(N2C(=O)/C(=C/C(Cl)=C\c3ccc([N+](=O)[O-])cc3)SC2=S)C(=O)N1c1ccc(O)cc1 (stereo not given)
GI50 (786-0 renal): 1.23 µM
TGI (786-0 renal): 4.81 µM
GI50 (A549 NSCLC): 3.11 µM
TGI (A549 NSCLC): 11.3 µM
GI50 (ACHN renal): 1.36 µM
TGI (ACHN renal): 2.76 µM
GI50 (BT-549 breast): 2.03 µM
TGI (BT-549 breast): 4.21 µM
GI50 (CAKI-1 renal): 1.15 µM
TGI (CAKI-1 renal): 2.42 µM
GI50 (CCRF-CEM leukemia): 0.385 µM
TGI (CCRF-CEM leukemia): 3.87 µM
GI50 (COLO 205 colon): 1.83 µM
TGI (COLO 205 colon): 5.04 µM
GI50 (DU-145 prostate): 1.72 µM
TGI (DU-145 prostate): 3.37 µM
GI50 (EKVX NSCLC): 3.25 µM
TGI (EKVX NSCLC): 11.7 µM
GI50 (HCC-2998 colon): 1.48 µM
TGI (HCC-2998 colon): 2.92 µM
GI50 (HCT-116 colon): 0.751 µM
TGI (HCT-116 colon): 2.14 µM
GI50 (HCT-15 colon): 0.472 µM
TGI (HCT-15 colon): 1.95 µM
GI50 (HL-60(TB) leukemia): 2.44 µM
TGI (HL-60(TB) leukemia): 9.57 µM
GI50 (HOP-62 NSCLC): 2.26 µM
TGI (HOP-62 NSCLC): 6.63 µM
GI50 (HOP-92 NSCLC): 1.62 µM
TGI (HOP-92 NSCLC): 3.72 µM
GI50 (HS 578T breast): 2.8 µM
TGI (HS 578T breast): 12.6 µM
GI50 (HT29 colon): 0.847 µM
TGI (HT29 colon): 8.78 µM
GI50 (IGROV1 ovarian): 1.2 µM
TGI (IGROV1 ovarian): 2.68 µM
GI50 (K-562 leukemia): 0.603 µM
TGI (K-562 leukemia): 9.55 µM
GI50 (KM12 colon): 1.83 µM
TGI (KM12 colon): 4.64 µM
GI50 (M14 melanoma): 1.46 µM
TGI (M14 melanoma): 3.31 µM
GI50 (MALME-3M melanoma): 2.31 µM
TGI (MALME-3M melanoma): 5.79 µM
GI50 (MCF7 breast): 1.21 µM
TGI (MCF7 breast): 10.7 µM
GI50 (MDA-MB-231 breast): 2.14 µM
TGI (MDA-MB-231 breast): 5.06 µM
GI50 (MDA-MB-435): 2.01 µM
TGI (MDA-MB-435): 4.34 µM
GI50 (MOLT-4 leukemia): 0.544 µM
TGI (MOLT-4 leukemia): 15.3 µM
GI50 (NCI-H226 lung): 2.41 µM
TGI (NCI-H226 lung): 6.82 µM
GI50 (NCI-H23 lung): 1.56 µM
TGI (NCI-H23 lung): 3.52 µM
GI50 (NCI-H460 lung): 2.55 µM
TGI (NCI-H460 lung): 6.75 µM
GI50 (NCI-H522 lung): 1.86 µM
TGI (NCI-H522 lung): 4.23 µM
GI50 (NCI/ADR-RES ovarian): 2.13 µM
TGI (NCI/ADR-RES ovarian): 12.1 µM
GI50 (OVCAR-3 ovarian): 0.604 µM
TGI (OVCAR-3 ovarian): 1.96 µM
GI50 (OVCAR-4 ovarian): 5.13 µM
TGI (OVCAR-4 ovarian): 17.3 µM
GI50 (OVCAR-5 ovarian): 1.91 µM
TGI (OVCAR-5 ovarian): 3.69 µM
GI50 (OVCAR-8 ovarian): 2.16 µM
TGI (OVCAR-8 ovarian): 14.2 µM
GI50 (PC-3 prostate): 0.906 µM
TGI (PC-3 prostate): 2.87 µM
GI50 (RPMI-8226 leukemia): 0.295 µM
TGI (RPMI-8226 leukemia): 4.36 µM
GI50 (RXF 393 renal): 1.53 µM
TGI (RXF 393 renal): 3.22 µM
GI50 (SF-268 CNS): 2.43 µM
TGI (SF-268 CNS): 6.99 µM
GI50 (SF-295 CNS): 1.31 µM
TGI (SF-295 CNS): 2.7 µM
GI50 (SF-539 CNS): 1.72 µM
TGI (SF-539 CNS): 3.81 µM
GI50 (SK-MEL-2 melanoma): 2.74 µM
TGI (SK-MEL-2 melanoma): 7.83 µM
GI50 (SK-MEL-28 melanoma): 1.95 µM
TGI (SK-MEL-28 melanoma): 4.2 µM
GI50 (SK-MEL-5 melanoma): 1.92 µM
TGI (SK-MEL-5 melanoma): 3.66 µM
GI50 (SK-OV-3 ovarian): 2.99 µM
TGI (SK-OV-3 ovarian): 9.26 µM
GI50 (SN12C renal): 1.6 µM
TGI (SN12C renal): 5.88 µM
GI50 (SNB-19 CNS): 1.34 µM
TGI (SNB-19 CNS): 3.47 µM
GI50 (SR leukemia): 0.394 µM
TGI (SR leukemia): 4.97 µM
GI50 (SW-620 colon): 0.684 µM
TGI (SW-620 colon): 2.28 µM
GI50 (T-47D breast): 2.45 µM
TGI (T-47D breast): 15.8 µM
GI50 (TK-10 renal): 1.92 µM
TGI (TK-10 renal): 3.79 µM
GI50 (U251 CNS): 0.597 µM
TGI (U251 CNS): 2.21 µM
GI50 (UACC-257 melanoma): 2.48 µM
TGI (UACC-257 melanoma): 9.12 µM
GI50 (UACC-62 melanoma): 1.67 µM
TGI (UACC-62 melanoma): 3.38 µM
GI50 (UO-31 renal): 1.35 µM
TGI (UO-31 renal): 2.79 µM
